BindingDB's records for doi:10.3109/14756366.2010.482529 (Yonsei University, 2010)

Target: T1, Polyphenol oxidase 1 (White button mushroom, UniProt Q00024)
T1 sequence (Q00024 whole entry): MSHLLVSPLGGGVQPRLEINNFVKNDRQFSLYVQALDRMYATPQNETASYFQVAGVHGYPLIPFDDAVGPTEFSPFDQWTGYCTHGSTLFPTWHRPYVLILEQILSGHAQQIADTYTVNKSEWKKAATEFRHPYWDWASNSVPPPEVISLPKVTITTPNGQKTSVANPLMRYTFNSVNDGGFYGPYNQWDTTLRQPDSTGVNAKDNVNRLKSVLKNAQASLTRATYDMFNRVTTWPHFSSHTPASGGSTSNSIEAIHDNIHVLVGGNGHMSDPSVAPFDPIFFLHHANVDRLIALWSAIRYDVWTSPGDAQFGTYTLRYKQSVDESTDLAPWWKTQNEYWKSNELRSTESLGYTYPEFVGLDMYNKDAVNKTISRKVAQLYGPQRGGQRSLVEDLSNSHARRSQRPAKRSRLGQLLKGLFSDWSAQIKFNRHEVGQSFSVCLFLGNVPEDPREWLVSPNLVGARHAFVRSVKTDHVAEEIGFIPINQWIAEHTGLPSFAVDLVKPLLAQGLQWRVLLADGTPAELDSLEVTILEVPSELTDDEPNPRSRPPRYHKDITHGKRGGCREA
Test: In Vitro Tyrosinase Inhibition Assay
Settings: pH 6.8; 25 °C
Protocol: Tyrosinase inhibition assays were performed in a 96-well microplate format using the SpectraMax 340 microplate reader (Molecular Devices, CA) according to the method developed by Hearing [Khan et al., Pure Appl. […] First the samples were screened for the o-diphenolase inhibitory activity of mushroom tyrosinase (Lyophilised, ≥2000 units/mg, Sigma, […], USA) using L-3,4-dihydroxyphenylalanine (L-DOPA) (Sigma) as substrate. All the active samples from the preliminary screening were subjected to half maximal inhibitory concentration (IC50) studies. The samples were dissolved in methanol/DMSO to a final concentration of 0.5%. […] Then the L-DOPA (0.5 mM) was added to the reaction mixture and the reaction was monitored by measuring the change in absorbance at 475 nm (at 37°C) due to the formation of the DOPA chrome for 10 min.

Question: Which IC50 does the source give for `N[C@@H](Cn1ccc(=O)c(O)c1)C(=O)O` here?
Answer: 3.68 µM

Question: How did the IC50 turn out when `CC(C)=CCOC(=O)c1ccc(O)cc1` [3-Methyl-2-butenyl-4-hydroxybenzoate (2)] was run?
Answer: 14.8 µM

Question: With `CC(C)=CCOC(=O)c1ccccc1` [3-Methyl-2-butenylbenzoate (1)] as the molecule, how does the IC50 read?
Answer: 83.4 µM

Question: For `O=C(Oc1ccc([N+](=O)[O-])cc1)c1ccc([N+](=O)[O-])cc1C(F)(F)F` [4-Nitro-phenyl-(4-nitro-2-trifluoromethyl)-benzoate (6)], which IC50 is on record?
Answer: 29.7 µM

Question: `O=C(NCCBr)c1cc([N+](=O)[O-])cc([N+](=O)[O-])c1` [N-(2-Bromo-ethyl)-3,5-dinitro-benzamide (8)] was tested. Which IC50 did it give?
Answer: 3.08 µM

Question: With `O=C(NCCO)c1cc([N+](=O)[O-])cc([N+](=O)[O-])c1` [N-(2-Hydroxy-ethyl)-3,5-dinitro-benzamide (7)] as the molecule, how does the IC50 read?
Answer: 1.09 µM

Question: With `CCNC(=O)c1ccccc1` [N-Ethyl-benzamide (10)] as the molecule, how does the IC50 read?
Answer: 11.8 µM

Question: Which IC50 does the source give for `Cc1ccc(C(=O)N(C)O)cc1` [N-Hydroxy-4,N-dimethyl-benzamide (9)] here?
Answer: 2.09 µM
